How the values were obtained:
Test in all cases: relative viability (nuclei count vs DMSO), 5 days (fraction); higher = more cells survive
NCI-H1993 = settings: first compound 0.5 µM
Method in brief: (§1)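 Dosing by pin tool came one day after lung cancer cell lines were seeded in 1536-well plates, using either one drug or a fixed anchor-drug dose plus five library-drug doses (not always all listed) in √10 steps. After 5 days, nuclei were counted on 4× images. Relative viability is treated-well nuclei count divided by vehicle-well nuclei count, and values are medians of duplicate plates.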

NCI-H2009 = tested on: NCI-H2009
Method in brief: as §1

NCI-H2170 = tested on: NCI-H2170
Method in brief: as §1

NCI-H2228 = tested on: NCI-H2228
Method in brief: as §1

NCI-H3122 = tested on: NCI-H3122
Method in brief: as §1

NCI-H596 = tested on: NCI-H596
Method in brief: as §1

NCI-H727 = tested on: NCI-H727
Method in brief: as §1

PC-3 [JPC-3] = tested on: PC-3 [JPC-3]
Method in brief: as §1

SK-LU-1 = tested on: SK-LU-1
Method in brief: as §1

SK-MES-1 = tested on: SK-MES-1
Method in brief: as §1

SW 1573 = tested on: SW 1573
Method in brief: as §1

SW 900 = tested on: SW 900
Method in brief: as §1

`CC1(C)CCC(c2ccc(Cl)cc2)=C(CN2CCN(c3ccc(C(=O)NS(=O)(=O)c4ccc(N[C@H](CCN5CCOCC5)CSc5ccccc5)c(S(=O)(=O)C(F)(F)F)c4)cc3)CC2)C1` [Navitoclax] + Cc1cc(Nc2cc(N3CCN(C)CC3)nc(Sc3ccc(NC(=O)C4CC4)cc3)n2)n[nH]1 [Tozasertib] (partner 0.1 µM) was tested, and the relative viability (NCI-H1993) was 0.595, the relative viability (NCI-H2009; first compound 0.005 µM) was 0.692 and the relative viability (NCI-H2009; first compound 0.01581 µM) was 0.79. The relative viability (NCI-H2009; first compound 0.05 µM) was 0.713, the relative viability (NCI-H2009; first compound 0.1581 µM) was 0.769 and the relative viability (NCI-H2009; first compound 0.5 µM) was 0.711. The relative viability (NCI-H2170; first compound 0.005 µM) was 0.716, the relative viability (NCI-H2170; first compound 0.01581 µM) was 0.71 and the relative viability (NCI-H2170; first compound 0.05 µM) was 0.689. For the same molecule, the relative viability (NCI-H2170; first compound 0.1581 µM) was 0.684, the relative viability (NCI-H2170; first compound 0.5 µM) was 0.665 and the relative viability (NCI-H2228; first compound 0.005 µM) was 0.343. The relative viability (NCI-H2228; first compound 0.01581 µM) was 0.296, the relative viability (NCI-H2228; first compound 0.1581 µM) was 0.285 and the relative viability (NCI-H2228; first compound 0.5 µM) was 0.212. It also gave a relative viability (NCI-H3122; first compound 0.005 µM) of 0.353, a relative viability (NCI-H3122; first compound 0.01581 µM) of 0.286 and a relative viability (NCI-H3122; first compound 0.05 µM) of 0.481. For the same molecule, the relative viability (NCI-H3122; first compound 0.1581 µM) was 0.306, the relative viability (NCI-H3122; first compound 0.5 µM) was 0.373 and the relative viability (NCI-H596; first compound 0.005 µM) was 0.776. For the same molecule, the relative viability (NCI-H596; first compound 0.01581 µM) was 0.853, the relative viability (NCI-H596; first compound 0.1581 µM) was 0.885 and the relative viability (NCI-H596; first compound 0.5 µM) was 1.03. For the same molecule, the relative viability (NCI-H727; first compound 0.005 µM) was 0.621, the relative viability (NCI-H727; first compound 0.01581 µM) was 0.692 and the relative viability (NCI-H727; first compound 0.1581 µM) was 0.676. For the same molecule, the relative viability (NCI-H727; first compound 0.5 µM) was 0.646, the relative viability (PC-3 [JPC-3]; first compound 0.005 µM) was 0.846 and the relative viability (PC-3 [JPC-3]; first compound 0.01581 µM) was 0.892. The relative viability (PC-3 [JPC-3]; first compound 0.05 µM) was 0.935, the relative viability (PC-3 [JPC-3]; first compound 0.1581 µM) was 0.898 and the relative viability (PC-3 [JPC-3]; first compound 0.5 µM) was 0.876. It also gave a relative viability (SK-LU-1; first compound 0.005 µM) of 0.326, a relative viability (SK-LU-1; first compound 0.01581 µM) of 0.324 and a relative viability (SK-LU-1; first compound 0.05 µM) of 0.308. For the same molecule, the relative viability (SK-LU-1; first compound 0.1581 µM) was 0.318, the relative viability (SK-LU-1; first compound 0.5 µM) was 0.298 and the relative viability (SK-MES-1; first compound 0.005 µM) was 0.853. For the same molecule, the relative viability (SK-MES-1; first compound 0.01581 µM) was 0.976, the relative viability (SK-MES-1; first compound 0.05 µM) was 0.953 and the relative viability (SK-MES-1; first compound 0.1581 µM) was 0.848. The relative viability (SK-MES-1; first compound 0.5 µM) was 0.952, the relative viability (SW 1573; first compound 0.005 µM) was 0.186 and the relative viability (SW 1573; first compound 0.01581 µM) was 0.147. The relative viability (SW 1573; first compound 0.05 µM) was 0.173, the relative viability (SW 1573; first compound 0.1581 µM) was 0.176 and the relative viability (SW 1573; first compound 0.5 µM) was 0.103. The relative viability (SW 900; first compound 0.005 µM) was 0.456, the relative viability (SW 900; first compound 0.01581 µM) was 0.46 and the relative viability (SW 900; first compound 0.05 µM) was 0.385. For the same molecule, the relative viability (SW 900; first compound 0.1581 µM) was 0.59 and the relative viability (SW 900; first compound 0.5 µM) was 0.501.
